Experimental findings from patent US9573913B2, “Cathepsin cysteine protease inhibitors” (Merck Sharp & Dohme Corp., priority 2013, dated 2017) are described below.

One experiment deals with human cathepsin K (UniProt P43236). The experiment in a line: Cathepsin K Assay (hrbCat K). It is filed as biochemical. The following applies: Z-Leu-Arg-AMC substrate, pH 5.5, 15 min preincubation; read-out: hrbCat K (IP (nM)). The method, then: Cathepsin K Assay (hrbCat K)
(§1) Then 0.5 μL of DMSO from each dilution were added to 18.75 μL of assay buffer (MES, 50 mM (pH 5.5); EDTA, 2.5 mM; DTT, 2.5 mM and 10% DMSO) containing human cathepsin K (0.4 nM) in assay buffer solution. The assay solutions were mixed for 5-10 seconds on a shaker plate and incubated for 15 minutes at room temperature. Z-Leu-Arg-AMC (8 μM) in 6.25 μL of assay buffer was added to the assay solutions. Hydrolysis of the coumarin leaving group (AMC) was followed by spectrofluorometry (Exλ=360 nm; Emλ=460 nm) for 30 minutes. Percent of inhibition were calculated by fitting experimental values to standard mathematical model for dose response curve.

The target of another experiment is T1, human cathepsin F (Homo sapiens, UniProt Q9UBX1).
T1 sequence (Q9UBX1 271-484): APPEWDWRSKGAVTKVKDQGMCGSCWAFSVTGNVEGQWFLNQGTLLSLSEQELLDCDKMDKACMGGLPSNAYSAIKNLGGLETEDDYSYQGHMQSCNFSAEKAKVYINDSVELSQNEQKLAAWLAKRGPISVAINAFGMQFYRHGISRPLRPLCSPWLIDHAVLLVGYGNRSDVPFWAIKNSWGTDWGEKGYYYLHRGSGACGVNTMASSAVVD
The experiment in a line: Cathepsin F assay (hCat F). As to conditions: Z-Phe-Arg-AMC substrate, pH 5.5, 15 min preincubation; read-out: hCat F (IP (nM)). The experiment is classed as biochemical. The method, then: Cathepsin F assay (hCat F)
as §1, with “Serial dilutions (1/3) from 500 μM down to 0.025 μM of test compounds were prepared in dimethyl sulfoxide (DMSO). Then” for “Then”, “F (10” for “K (0.4”, “Z-Phe-Arg-AMC” for “Z-Leu-Arg-AMC”, “20” for “30”

Each structure is given as a SMILES string. Bounds are passed on as bounds.

As for `CC(Oc1ncccc1-c1nc([C@@H]2CCCC[C@H]2C(=O)NC2(C#N)CC2)c(-c2ccc(N3CCS(=O)(=O)CC3)cc2)s1)C(F)(F)F` (mixture of isomers) [Example 134, (1R,2R)-N-(1-cyanocyclopropyl)-2-(5-(4-(1,1-dioxidothiomorpho-lino)phenyl)-2-(2-(((S and R)-1,1,1-trifluoropropan-2-yl)oxy)pyridin-3-yl)thiazol-4-yl)cyclohexane-carboxamide], the IC50 was found to be 2.8 nM at human cathepsin K and 3330 nM at human cathepsin F.

Consider `CC(Oc1ccc(-c2nc([C@@H]3CCCC[C@H]3C(=O)NC3(C#N)CC3)c(-c3ccc(N4CCS(=O)(=O)CC4)cc3)s2)cn1)C(F)(F)F` (mixture of isomers) [Example 137, (1R,2R)-N-(1-cyanocyclopropyl)-2-(5-(4-(1,1-dioxidothiomorpho-lino)phenyl)-2-(6-(((S and R)-1,1,1-trifluoropropan-2-yl)oxy)pyridin-3-yl)thiazol-4-yl)cyclohexane-carboxamide], for which the IC50 at human cathepsin K came to 1.2 nM; at human cathepsin F it was 3330 nM.

With `N#CC1(NC(=O)[C@@H]2CCCC[C@H]2c2nc(C3CCOC3)sc2-c2ccc(N3CCS(=O)(=O)CC3)cc2)CC1` (mixture of isomers) [Example 147, (1R,2R)-N-(1-cyanocyclopropyl)-2-(5-(4-(1,1-dioxidothiomorpho-lino)phenyl)-2-((R and S)-tetrahydrofuran-3-yl)thiazol-4-yl)cyclohexane-carboxamide], the IC50 at human cathepsin K was determined as 4.5 nM; at human cathepsin F it was 1000 nM.

In the case of `N#CC1(NC(=O)[C@@H]2CCCC[C@H]2c2nc(C3CCCCO3)sc2-c2ccc(N3CCS(=O)(=O)CC3)cc2)CC1` (mixture of isomers) [Example 148, (1R,2R)-N-(1-cyanocyclopropyl)-2-(5-(4-(1,1-dioxidothiomorpho-lino)phenyl)-2-((R and S)-tetrahydro-2H-pyran-2-yl)thiazol-4-yl)cyclohexane-carboxamide], the results for the IC50 on human cathepsin K and on human cathepsin F were 2.6 nM and 1930 nM, respectively.

As for `N#CC1(NC(=O)[C@@H]2CCCC[C@H]2c2nc(C3CCC(F)(F)C3)sc2-c2ccc(N3CCS(=O)(=O)CC3)cc2)CC1` (mixture of isomers) [Example 154, (1R,2R)-N-(1-cyanocyclopropyl)-2-(2-((R and S)-3,3-difluorocyclopentyl)-5-(4-(1,1-dioxidothiomorpho-lino)phenyl)thiazol-4-yl)cyclohexane-carboxamide], the IC50 on human cathepsin K amounted to 4.5 nM; at human cathepsin F, 1000 nM.

Turning to `CS(=O)(=O)c1ccc(-c2oc(-c3ccccc3)nc2C2CCC(F)(F)CC2C(=O)NCC#N)cc1` (racemic) [Example 162, (1R,2R and 1S,2S)-N-(cyanomethyl)-5,5-difluoro-2-(5-(4-(methylsulfonyl)phenyl)-2-phenyloxazol-4-yl)cyclohexane-carboxamide], the IC50 on human cathepsin K came to 2.7 nM; on human cathepsin F, 49 nM.

Consider `CS(=O)(=O)c1ccc(-c2oc(-c3ccc(F)cc3)nc2C2CCC(F)(F)CC2C(=O)NCC#N)cc1` (racemic) [Example 163, (1R,2R and 1S,2S)-N-(cyanomethyl)-5,5-difluoro-2-(2-(4-fluorophenyl)-5-(4-(methylsulfonyl)phenyl)oxazol-4-yl)cyclohexane-carboxamide], for which the IC50 was determined as 2.9 nM at human cathepsin K and 26 nM on human cathepsin F.

Regarding `N#CC(NC(=O)[C@@H]1CCCC[C@H]1c1nc(-c2ccc(F)cn2)sc1-c1ccc(N2CCS(=O)(=O)CC2)cc1)C(F)(F)F` (mixture of isomers) [Example 215, (1R,2R)-N-((S and R)-1-cyano-2,2,2-trifluoroethyl)-2-(5-(4-(1,1-dioxidothiomorpho-lino)phenyl)-2-(5-fluoropyridin-2-yl)thiazol-4-yl)cyclohexane-carboxamide], the IC50 at human cathepsin K was determined as 2.4 nM; at human cathepsin F it was 60 nM.

As for `CC1CC1(C#N)NC(=O)[C@@H]1CCCC[C@H]1c1nc(-c2ccc(F)cn2)sc1-c1ccc(N2CCS(=O)(=O)CC2)cc1` (single isomer, unassigned) [Example 203, (1R,2R)-N-((1R,2S or 1R,2R or 1S,2S or 1S,2R)-1-cyano-2-methylcyclopropyl)-2-(5-(4-(1,1-dioxidothiomorpho-lino)phenyl)-2-(5-fluoropyridin-2-yl)thiazol-4-yl)cyclohexane-carboxamide], the IC50 at human cathepsin K worked out at 161 nM.

With `CC(C)(O)C(C#N)NC(=O)[C@@H]1CCCC[C@H]1c1nc(-c2ccc(F)cn2)sc1-c1ccc(N2CCS(=O)(=O)CC2)cc1` (single isomer, unassigned) [Example 226, (1R,2R)-N-((S or R)-1-cyano-2-hydroxy-2-methylpropyl)-2-(5-(4-(1,1-dioxidothiomorpho-lino)phenyl)-2-(5-fluoropyridin-2-yl)thiazol-4-yl)cyclohexane-carboxamide], the IC50 at human cathepsin F is at least 10000 nM.

Regarding `CC(C)(O)C(C#N)NC(=O)[C@@H]1CCCC[C@H]1c1nc(-c2ccc(F)cn2)sc1-c1ccc(N2CCS(=O)(=O)CC2)cc1` (single isomer, unassigned) [Example 227, (1R,2R)-N-((R or S)-1-cyano-2-hydroxy-2-methylpropyl)-2-(5-(4-(1,1-dioxidothiomorpho-lino)phenyl)-2-(5-fluoropyridin-2-yl)thiazol-4-yl)cyclohexane-carboxamide], the IC50 at human cathepsin K is 59.5 nM.

As to `N#CC1(NC(=O)[C@@H]2C[C@@H](F)CC[C@H]2c2nc(C3CC(F)C3)sc2-c2ccc(N3CCS(=O)(=O)CC3)cc2)CC1` (single isomer, unassigned) [Example 235, (1R,2R,5S)-N-(1-cyanocyclopropyl)-2-(5-(4-(1,1-dioxidothiomorpho-lino)phenyl)-2-((1R,3R or 1S,3S)-3-fluorocyclobutyl)thiazol-4-yl)-5-fluorocyclohexane-carboxamide], the IC50 at human cathepsin K worked out at 4.2 nM.

As for `Cc1ncc(-c2nc([C@@H]3CCCC[C@H]3C(=O)NC3(C#N)CC3)c(-c3ccc(N4CCS(=O)(=O)CC4)cc3)s2)s1` [Example 52, (1R,2R)-N-(1-cyanocyclopropyl)-2-(5-(4-(1,1-dioxidothiomorpho-lino)phenyl)-2′-methyl-[2,5′-bithiazol]-4-yl)cyclohexane-carboxamide], at human cathepsin K, the IC50 was found to be 2.3 nM.

With `N#CC1(NC(=O)[C@@H]2CCC(F)(F)C[C@H]2c2nc(-c3cncc(F)c3)sc2-c2ccc(N3CCS(=O)(=O)CC3)cc2)CC1` [Example 108, (1R,2R)-N-(1-cyanocyclopropyl)-2-(5-(4-(1,1-dioxidothiomorpho-lino)phenyl)-2-(5-fluoropyridin-3-yl)thiazol-4-yl)-4,4-difluorocyclohexane-carboxamide], the IC50 on human cathepsin K turned out to be 1.7 nM.

As for `CC(C)(C#N)NC(=O)[C@@H]1C[C@@H](F)CC[C@H]1c1nc(-c2ccc(F)cn2)sc1-c1ccc(N2CCS(=O)(=O)CC2)cc1` [Example 140, (1R,2R,5S)-N-(2-cyanopropan-2-yl)-2-(5-(4-(1,1-dioxidothiomorpho-lino)phenyl)-2-(5-fluoropyridin-2-yl)thiazol-4-yl)-5-fluorocyclohexane-carboxamide], the IC50 at human cathepsin K is 66.7 nM.

Consider `N#CC1(NC(=O)[C@@H]2CCC(F)(F)C[C@H]2c2nc(-c3cncc(F)c3)sc2-c2ccc(N3CCS(=O)(=O)CC3)cc2)CC1` [Example 218, (1R,2R)-N-(1-cyanocyclopropyl)-2-(5-(4-(1,1-dioxidothiomorpho-lino)phenyl)-2-(5-fluoropyridin-3-yl)thiazol-4-yl)-4,4-difluorocyclohexane-carboxamide], for which the IC50 on human cathepsin K is 4.2 nM.
